Results reported in PubChem BioAssay AID2423 (Broad Institute, 2010).
Results filed as inconclusive are left out. The source made the active and inactive calls. The rule behind the calls is not given here.

Test system: C. albicans CaCi-8 + fluconazole, Alamar Blue growth, 48 h
Assay: resistant C. albicans growth inhibition with fluconazole, dose response, CaCi-8 strain, Alamar Blue fluorescence (AID 2423)

Structure (SMILES)	EC50
O=C(c1ccc(Cn2c(=S)[nH]c3ccccc3c2=O)cc1)N1CCN(c2ccccn2)CC1	695 nM
CCOc1ccc(-c2ccc(NS(=O)(=O)c3ccc([N+](=O)[O-])cc3)cc2)nn1	2650 nM
O=C(N/N=C/c1cc(Br)c(Br)o1)c1ccc2c(c1)OCCO2	643 nM
O=c1c2ccccc2nc(/C=C/c2ccc([N+](=O)[O-])o2)n1CCCO	153 nM
O=C(NNC(=S)Nc1ccc(Cl)cc1)c1ccccc1OC(F)F	2600 nM
CCc1ccc(OCC(=O)NNC(=S)NC(=O)C2CCCCC2)c(Br)c1	1790 nM
O=C(N/N=C/c1cc([N+](=O)[O-])ccc1O)/C(=C\c1cccs1)NC(=O)c1ccccc1	3590 nM
Cc1ccccc1-n1c(=O)c(C#N)cc2c(=O)n3ccccc3nc21	> 16000 nM (inactive)
CS/C(=C\[N+](=O)[O-])Nc1ccc(Cl)cc1	4020 nM
COC(=O)Cn1nc(-c2ccccc2)c2ccccc21	2280 nM
CCc1cc(=S)n2c([nH]c3ccccc32)c1C#N	513 nM
S=c1nc[nH]c2c1cnn2Cc1ccccc1	2330 nM
CCOC(=O)c1cnc2ccc(C)cc2c1Nc1ccc(N2CCOCC2)cc1	1100 nM
Cn1c(NN=O)nc2ccccc21	> 15000 nM (inactive)
CSc1ccc(C2c3[nH]c4ccccc4c3CCN2C(=O)c2ccnn2C)cc1 (stereo not drawn)	2350 nM
Cc1ccc(NC(=O)c2noc(C(C)C)c2[N+](=O)[O-])cc1	3200 nM
O=c1c2cc(Br)ccc2nc(-c2ccccc2)n1O	2080 nM
CCOC(=O)c1c(-c2ccccc2)oc2cc(Br)c(O)c(C=O)c12	1440 nM
Oc1ccc2ccccc2c1/C=N/Nc1nnc(-c2ncc[nH]2)c2ccccc12	382 nM
O=C(Nc1ccc(OCc2ccccc2Cl)cc1)c1cccnc1	3710 nM
COc1ccccc1N=Nc1ccc(O)c2ncccc12	871 nM
Cc1cc(Cl)ccc1OCc1cn2cccnc2n1	5340 nM
Cc1ccsc1C(=O)OCC(=O)Nc1sccc1C(N)=O	866 nM
O=C(COc1ccc2c(c1)CCC2)N1CCN(c2cccc(C(F)(F)F)c2)CC1	> 16000 nM (inactive)
Cn1cc(C(c2ccccn2)c2cn(C)c3ccccc23)c2ccccc21	185 nM
CCCCCCC[n+]1ccc(-c2cc[n+](CCCCCCC)cc2)cc1	< 120 nM

Structure (SMILES)	EC50
S=c1[nH]nc(-c2ccccc2)n1/N=C/c1cccs1	6130 nM
CCCCC(=O)NC(=S)Nc1cccc(NC(=O)c2ccco2)c1	1220 nM
O=C(c1ccc2c(c1)OCO2)N1CCC2(CC1)Oc1ccc(Cl)cc1C(=O)C21CC(c2cccnc2)=NO1 (stereo not drawn)	438 nM
O=C(NCCc1ccccc1)c1c(O)c2cccc3c2n(c1=O)CC3	> 15000 nM (inactive)
CC(C)CCOc1cccc(OCC(=O)Nc2ccncc2)c1	3220 nM
CN(C)S(=O)(=O)c1cccc(NC(=S)N/N=C/c2cc(Br)ccc2O)c1	3840 nM
Cc1ccc(Cn2nnc3c(=O)[nH]c(C4CCN(S(=O)(=O)c5ccc(C)cc5)CC4)nc32)cc1	> 15000 nM (inactive)
O=C(O)c1ccc(CN2C(=O)CSC2=S)cc1	> 15000 nM (inactive)
O=C(O)CCCCCn1c(O)c(C=C2N=c3ccccc3=N2)sc1=S	1640 nM
CCCCC(=O)NC(c1ccc(Cl)cc1Cl)c1ccc2cccnc2c1O (stereo not drawn)	407 nM
CCOc1cc(C=O)cc(N=Nc2cccc([N+](=O)[O-])c2)c1O	639 nM
COc1cc(OC)cc(C(=O)Oc2c(CN3CCOCC3)cc(Cl)c3cccnc23)c1	2620 nM
O=C(Cc1ccc([N+](=O)[O-])cc1)NNC(=O)c1ccc2c(c1)OCO2	> 15000 nM (inactive)
Cc1ccccc1C(=O)O/N=C/c1c(N2CCOCC2)n(C)c2ccccc12	593 nM
Cc1cccc(NC(=O)NNC(=O)c2cc3ccccc3cc2O)c1C	> 15000 nM (inactive)
COc1ccc(-c2cc(C(=O)NNC(=S)NC(=O)c3c(-c4ccccc4)noc3C)[nH]n2)cc1	2460 nM
CCCOc1cccc(-c2nnc(NC(=O)c3ccco3)s2)c1	622 nM
CCOc1ccc(CN(C(=O)c2oc3ccccc3c2C)C2CCS(=O)(=O)C2)cc1 (stereo not drawn)	> 16000 nM (inactive)
C=CCn1c(N)nc2ccccc21	2720 nM
Cc1ccc(S(=O)(=O)NNC(=O)c2ccc(NC(=O)C3CC3)cc2)cc1	> 15000 nM (inactive)
CCCCN(C(=O)/C=C/c1ccco1)c1c(N)n(Cc2ccccc2)c(=O)[nH]c1=O	> 15000 nM (inactive)
Cc1c(CCOC(=O)CC23CC4CC(CC(C)(C4)C2)C3)sc[n+]1Cc1ccc([N+](=O)[O-])cc1	11900 nM
CCOc1ccc(/C=N/NC(=O)c2[nH]ncc2Br)c(O)c1	1850 nM
COCc1nnc(NC(=O)c2ccc(S(=O)(=O)N3CCCCCC3)cc2)o1	12900 nM
CC(c1ccc(Cl)cc1)n1c(-c2ccc3ccccc3n2)n[nH]c1=S (stereo not drawn)	5260 nM
Oc1c(C(c2ccccn2)N2CCC(Cc3ccccc3)CC2)cc(Cl)c2cccnc12 (stereo not drawn)	1880 nM

Structure (SMILES)	EC50
Oc1c(CN2CCOCC2)cc(COCc2ccccc2)c2cccnc12	963 nM
COc1ccc(C2=NN(c3nc4ccccc4s3)C(=O)C2)cc1	5660 nM
O=c1c2ccc(Cl)cc2nc(-c2cccc(C(F)(F)F)c2)n1O	832 nM
CCOc1ccc(NC(=O)c2cn(-c3ccc(OCC)cc3)c(=O)c3cc(OC)c(OC)cc23)cc1	485 nM
COC(=O)N/N=C/c1ccc(-c2cc(Cl)cc(Cl)c2)o1	929 nM
O=C(COc1ccc(Cl)cc1Cl)N1CCCN(C(=O)COc2ccc(Cl)cc2Cl)CC1	1480 nM
C=CCOc1ccc(/C=C2\SC(=S)N(NS(=O)(=O)c3ccc(C)cc3)C2=O)cc1	3290 nM
COc1ccnc(Oc2cccc(C(F)(F)F)c2)c1C(=O)N/C=N/OCc1ccccc1F	> 15000 nM (inactive)
COc1ccccc1/C=C1\SC(=S)N(NS(=O)(=O)c2ccccc2)C1=O	1110 nM
CC(C)(C)NC(=S)N/N=C/c1cc(Br)c(O)c(Br)c1	> 15000 nM (inactive)
S=C(Nc1ccc(Cl)cc1)c1nc2ccccc2[nH]1	1640 nM
CCOc1cc(S(=O)(=O)NCc2ccccc2)c(OCC)cc1-n1cnnn1	> 15000 nM (inactive)
O=C(N/N=C/c1ccncc1)c1cc2ccccc2cc1O	> 15000 nM (inactive)
Cc1ccc(S(=O)(=O)c2c(C)nn(C(C)(C)C)c2OC(=O)c2ccc(Br)o2)cc1	> 16000 nM (inactive)
Cc1ccnc(Sc2ccc([N+](=O)[O-])cc2[N+](=O)[O-])n1	964 nM
CCOc1ccc2c(c1)OC(c1ccc(C)cc1)(C(F)(F)F)NC2=O (stereo not drawn)	> 16000 nM (inactive)
CCOc1ccccc1C1C2=C(COC2=O)Nc2cc3c(cc21)OCO3 (stereo not drawn)	> 16000 nM (inactive)
COc1ccc(OC)c2[nH]c(C(=O)N/N=C/c3ccccc3O)cc12	914 nM
NNC(=O)c1cc(O)c(O)c(O)c1	8640 nM
CCN1/C(=C/c2cccc[n+]2C)Sc2ccc(OC)cc21	10700 nM
O=C(Nc1nnc(-c2ccccc2)o1)c1cc(-c2cccs2)nc2ccccc12	901 nM
Cc1ccc(C(=O)NCc2ccco2)cc1S(=O)(=O)Nc1cccc(Cl)c1	> 15000 nM (inactive)
O=[N+]([O-])c1cccc(-c2cc(-c3cc(Br)ccc3O)[nH]n2)c1	866 nM
O=C(O)c1ccc(NC(=S)NC(=O)c2ccc(-c3ccccc3)cc2)cc1	3350 nM
CCOc1ccc2nc(N3C(=O)/C(=C/c4ccccc4)NC3=S)sc2c1	1410 nM
COC(=O)C1CCN(Cc2c(C(=O)N3C[C@@H](C)O[C@@H](C)C3)nc3ccc(Cl)cn23)CC1	> 15000 nM (inactive)
